Data: paper PMC3634983 (Clinical Drug Investigation, 2013)
Read-outs that look alike come from different tables or passages of the source.

What was measured:
[1] = assay type: in vivo, human; conditions: for detectability in plasma: after single oral doses of dabigatran etexilate; for AUC(0-inf) / Cmax / Tmax: human, plasma, po
[2] = test system: healthy subjects; conditions: after a single dose; cited from earlier work
[3] = following an oral dose without food; cited from earlier work
[4] = test system: healthy subjects; assay: Safety and tolerability evaluation; assay type: in vivo, human
[5] = test system: healthy subjects; assay: Thorough QT study: ECG profiles; assay type: in vivo, human; conditions: for ∆∆HR / ∆∆QT / ∆∆QTcI: mean (90 % CI); for Adjusted mean (SE) ∆ QTcI: time-matched change from baseline between 1.5 and 3 h post-dose, n=40
[6] = cited from earlier work
[7] = test system: anaesthetised pigs; conditions: up to 3 mg/kg intravenously; cited from earlier work
[8] = test system: healthy subjects; assay type: in vivo, human
[9] = test system: hERG-mediated potassium current; conditions: human embryonic kidney cells; cited from earlier work
[10] = test system: isolated guinea pig papillary muscles; conditions: concentrations up to 10 μmol/L; cited from earlier work
[11] = cited from earlier work; remark: listed apart in the source
[12] = test system: activated partial thromboplastin time; conditions: 600 mg dose; achieved at 2–4 h post-dose; pilot study; cited from earlier work
[13] = moxifloxacin 400 mg, 1:00 h post-dose
[14] = moxifloxacin 400 mg, 1:30 h post-dose
[15] = moxifloxacin 400 mg, 2:00 h post-dose
[16] = moxifloxacin 400 mg, 3:00 h post-dose
[17] = moxifloxacin 400 mg, 6:00 h post-dose
[18] = at gMean Cmax of dabigatran etexilate 150 mg dose
[19] = at gMean Cmax of dabigatran etexilate 600 mg dose
[20] = exposure-response analysis for placebo-corrected CfB of HR, post hoc
[21] = exposure-response analysis for placebo-corrected CfB of QTcI, post hoc
[22] = dabigatran etexilate 150 mg, 1:00 h post-dose
[23] = dabigatran etexilate 150 mg, 1:30 h post-dose
[24] = dabigatran etexilate 150 mg, 2:00 h post-dose
[25] = dabigatran etexilate 150 mg, 3:00 h post-dose
[26] = dabigatran etexilate 150 mg, 6:00 h post-dose
[27] = dabigatran etexilate 150 mg, 12:00 h post-dose
[28] = dabigatran etexilate 150 mg, 24:00 h post-dose
[29] = dabigatran etexilate 150 mg, between 1 and 6 h post-dose
[30] = dabigatran etexilate 600 mg, 1:00 h post-dose
[31] = dabigatran etexilate 600 mg, 1:30 h post-dose
[32] = dabigatran etexilate 600 mg, 2:00 h post-dose
[33] = dabigatran etexilate 600 mg, 3:00 h post-dose
[34] = dabigatran etexilate 600 mg, 6:00 h post-dose
[35] = dabigatran etexilate 600 mg, 12:00 h post-dose
[36] = dabigatran etexilate 600 mg, 24:00 h post-dose
[37] = dabigatran etexilate 600 mg, between 1 and 6 h post-dose

CCCCCCOC(=O)NC(=N)c1ccc(NCc2nc3cc(C(=O)N(CCC(=O)O)c4ccccn4)ccc3n2C)cc1 [BIBR1087]
detectability in plasma [1]: only detectable between 0.5 and 3 h post-dosing and then only in very low concentrations

COc1c(N2C[C@@H]3CCCN[C@@H]3C2)c(F)cc2c(=O)c(C(=O)O)cn(C3CC3)c12 [Moxifloxacin, moxifloxacin]
QT-interval prolongation [2]: 8 to 14 ms | time of peak plasma concentration [3]: 1 to 4 h | Global tolerability (good / satisfactory / not satisfactory / bad) ([4]; investigator-assessed): one subject who responded ‘not satisfactory’ | subjects with adverse events within the treatment period ([4]; moxifloxacin 400 mg, one subject of 40 ('feeling dazed')): 2.5% | ∆∆HR [5, 13]: 2.4 (0.9 to 3.8) bpm | ∆∆QT [5, 13]: 8.3 (4.7 to 11.9) ms | ∆∆QTcI [5, 13]: 11.1 (8.4 to 13.8) ms | ∆∆HR [5, 14]: 1.3 (0.1 to 2.5) bpm | ∆∆QT [5, 14]: 11.9 (8.3 to 15.5) ms | ∆∆QTcI [5, 14]: 12.8 (10.2 to 15.6) ms | ∆∆HR [5, 15]: 0.4 (−1.0 to 1.7) bpm | ∆∆QT [5, 15]: 13.6 (10.4 to 16.9) ms | ∆∆QTcI [5, 15]: 14.1 (11.7 to 16.5) ms | ∆∆QTcI ([5]; moxifloxacin 400 mg, 2:00 h post-dose, listed as moxifloxacin): 14.1 ms | ∆∆HR [5, 16]: 2.7 (1.1 to 4.4) bpm | ∆∆QT [5, 16]: 10.3 (6.9 to 13.8) ms | ∆∆QTcI [5, 16]: 14.1 (11.4 to 16.7) ms | ∆∆HR [5, 17]: 1.5 (0.1 to 2.8) bpm | ∆∆QT [5, 17]: 9.2 (6.1 to 12.2) ms | ∆∆QTcI [5, 17]: 10.4 (8.0 to 12.8) ms | Mean (SE) [90 % CI] ∆∆ QTcI ([5]; moxifloxacin 400 mg, placebo-corrected change from baseline between 1.5 and 3 h post-dose): 14.2 ms

CCOC(=O)CCN(C(=O)c1ccc2c(c1)nc(CNc1ccc(C(=N)N)cc1)n2C)c1ccccn1 [BIBR951]
detectability in plasma [1]: only detectable between 0.5 and 3 h post-dosing and then only in very low concentrations

[H]/N=C(/N)c1ccc(NCc2nc3cc(C(=O)N(CCC(=O)O)c4ccccn4)ccc3n2C)cc1 [dabigatran]
half-life [6]: 12 to 17 h | influence on cardiovascular parameters [7]: no influence on cardiovascular parameters | Predicted value of ∆∆HR at Cmax (90 % CI) [8, 18]: 0.3 (−0.4 to 1.0) bpm | Predicted value of ∆∆QTcI at Cmax (90 % CI) [8, 18]: 0.4 (−0.9 to 1.7) ms | Predicted value of ∆∆HR at Cmax (90 % CI) [8, 19]: 0.4 (−0.9 to 1.7) bpm | Predicted value of ∆∆QTcI at Cmax (90 % CI) [8, 19]: 0.5 (−1.5 to 2.6) ms | PK-∆∆HR intercept [8, 20]: 0.26 bpm | PK-∆∆HR slope [8, 20]: 0.0005 bpm/[ng/mL] | PK-∆∆QTcI intercept [8, 21]: 0.34 ms | PK-∆∆QTcI slope [8, 21]: ~0 ms/[ng/mL] | PK-∆∆QTcI slope ([8]; exposure-response analysis for placebo-corrected CfB of QTcI, post hoc, listed as Free non-conjugated dabigatran): 0.0006 ms/[ng/mL] | 90 % CI of the predicted value of placebo-corrected CfB of QTcI at gMean Cmax ([8]; total and free dabigatran, each dose (all four analyses)): below 3 ms | effect on hERG-mediated potassium current [9]: did not modify the hERG-mediated potassium current | AUC(0-inf) ([1]; 150 mg): 0.54 µg·h/mL | Cmax ([1]; 150 mg): 0.0714 µg/mL | Tmax ([1]; 150 mg): 2.03 h | AUC(0-inf) ([1]; 600 mg): 2.23 µg·h/mL | Cmax ([1]; 600 mg): 0.281 µg/mL | Tmax ([1]; 600 mg): 3 h | changes in QT interval [10]: no noteworthy changes in QT interval

CCCCCCOC(=O)NC(=N)c1ccc(NCc2nc3cc(C(=O)N(CCC(=O)OCC)c4ccccn4)ccc3n2C)cc1 [Dabigatran etexilate]
detectability in plasma [1]: only detectable between 0.5 and 3 h post-dosing and then only in very low concentrations | Mean Cmax with 600 mg relative to 150 mg dose ([1]; dabigatran etexilate 600 mg versus 150 mg): approximately fourfold higher | Cmax after 600 mg relative to steady-state concentration in patients ([1]; versus patients receiving dabigatran etexilate 150 mg once daily): 4 times | Cmax after 600 mg relative to steady-state concentration in patients ([1]; versus patients receiving dabigatran etexilate 150 mg twice daily): 2.6 times | subjects with adverse events within the treatment period ([4]; dabigatran etexilate 150 mg, three subjects of 40): 7.5% | subjects with adverse events within the treatment period ([4]; dabigatran etexilate 600 mg, four subjects of 40): 10% | tolerability ([4]; single oral doses of 150 mg and 600 mg): well tolerated | steady-state concentration ([11]; patients receiving dabigatran etexilate 150 mg once daily): 99.2 ng/mL | steady-state concentration ([11]; patients receiving dabigatran etexilate 150 mg twice daily): 146 ng/mL | upper bound of the two-sided 90 % CI of the largest time-matched mean difference from placebo (QTcI) ([5]; both dose levels (150 mg and 600 mg), 0.5 to 24 h post-dose): 3 to 4 ms | upper limit of 95 % CI, secondary endpoints (QTcI versus placebo) ([5]; both doses (150 mg and 600 mg)): below 4 ms | upper limit of the 95 % CI, primary endpoint (QTcI versus placebo) ([5]; both doses (150 mg and 600 mg)): approximately 1.5 ms | Adjusted mean (SE) ∆ QTcI ([5]; dabigatran etexilate 150 mg single oral dose): −4.9 (1.1) ms | ∆∆HR [5, 22]: 0.7 (−0.5 to 1.8) bpm | ∆∆QTcI [5, 22]: −0.1 (−2.5 to 2.2) ms | ∆∆HR [5, 23]: −0.3 (−1.4 to 0.8) bpm | ∆∆QT [5, 23]: −0.6 (−3.3 to 2.1) ms | ∆∆QTcI [5, 23]: −1.4 (−3.2 to 0.4) ms | ∆∆HR [5, 24]: −0.3 (−1.5 to 0.8) bpm | ∆∆QT [5, 24]: −0.2 (−2.9 to 2.6) ms | ∆∆QTcI [5, 24]: −0.7 (−2.9 to 1.6) ms | ∆∆QT [5, 25]: −1.9 (−4.9 to 1.0) ms | ∆∆QTcI [5, 25]: −1.1 (−3.3 to 1.2) ms | ∆∆QT [5, 26]: −0.5 (−3.8 to 2.7) ms | ∆∆QTcI [5, 26]: −0.4 (−3.0 to 2.2) ms | ∆∆HR [5, 27]: −0.4 (−1.7 to 0.9) bpm | ∆∆QT [5, 27]: 1.3 (−1.8 to 4.5) ms | ∆∆QTcI [5, 27]: 0.9 (−1.7 to 3.5) ms | ∆∆HR [5, 28]: −0.1 (−1.1 to 1.0) bpm | ∆∆QT [5, 28]: −0.2 (−2.8 to 2.5) ms | ∆∆QTcI [5, 28]: −0.1 (−1.9 to 1.7) ms | mean time-matched CfB of QTcI [5, 29]: -5.3 ms | upper bound of the two-sided 90 % CI of placebo-adjusted CfB of QTcI [5, 29]: 1.5 ms | upper bound of the two-sided 90 % CI of placebo-adjusted CfB of QTcI ([5]; dabigatran etexilate 150 mg, between 1.5 and 3 h post-dose): 1.4 ms | Adjusted mean (SE) ∆ QTcI ([5]; dabigatran etexilate 600 mg single oral dose): −5.0 (1.1) ms | ∆∆HR [5, 30]: 0.5 (−0.6 to 1.6) bpm | ∆∆QT [5, 30]: −1.8 (−5.2 to 1.5) ms | ∆∆QTcI [5, 30]: −1.5 (−3.8 to 0.9) ms | ∆∆HR [5, 31]: −0.3 (−1.5 to 0.8) bpm | ∆∆QT [5, 31]: −0.6 (−3.3 to 2.1) ms | ∆∆QTcI [5, 31]: −1.7 (−3.5 to 0.2) ms | ∆∆HR [5, 32]: −1.1 (−2.2 to 0.1) bpm | ∆∆QT [5, 32]: −0.9 (−3.7 to 1.8) ms | ∆∆QTcI [5, 32]: −2.6 (−4.8 to −0.4) ms | ∆∆HR [5, 33]: 1.5 (−0.1 to 2.9) bpm | ∆∆QT [5, 33]: −2.9 (−5.8 to 0.1) ms | ∆∆QTcI [5, 33]: −1.1 (−3.3 to 1.1) ms | ∆∆HR [5, 34]: 0.6 (−0.7 to 1.9) bpm | ∆∆QT [5, 34]: −1.1 (−4.3 to 2.2) ms | ∆∆QTcI [5, 34]: −0.8 (−3.4 to 1.8) ms | ∆∆HR [5, 35]: −0.2 (−1.5 to 1.1) bpm | ∆∆QT [5, 35]: 1.0 (−2.1 to 4.2) ms | ∆∆QTcI [5, 35]: 0.4 (−2.2 to 3.0) ms | ∆∆HR [5, 36]: 1.1 (0.0 to 2.2) bpm | ∆∆QTcI [5, 36]: −1.6 (−3.4 to 0.2) ms | mean time-matched CfB of QTcI [5, 37]: -5.4 ms | upper bound of the two-sided 90 % CI of placebo-adjusted CfB of QTcI [5, 37]: 1.4 ms | upper bound of the two-sided 90 % CI of placebo-adjusted CfB of QTcI ([5]; dabigatran etexilate 600 mg, between 1.5 and 3 h post-dose): 1.3 ms | prolongation of QTcN, QTcF, uncorrected QT and QTcB ([5]; either dabigatran etexilate dose): none of these parameters was prolonged | prolongation of the QT interval ([5]; overall study result): ≤ 5 ms | QT prolongation or arrhythmogenic effects (conclusion) ([5]; therapeutic (150 mg) and supratherapeutic (600 mg) doses): not associated with QT prolongation or arrhythmogenic effects | increase in activated partial thromboplastin time [12]: two- to threefold increase
